The structures appear in SMILES notation.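 All cell lines were grown in 96-well plates and treated with compound for 48 hours. TGI is the concentration that stops growth completely.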

Among the test systems are A549 NSCLC; COLO 205 colon; EKVX NSCLC; HCT-15 colon; HOP-92 NSCLC; IGROV1 ovarian; M14 melanoma; MALME-3M melanoma; NCI-H460 lung; OVCAR-5 ovarian; SF-295 CNS; SK-MEL-28 melanoma; SNB-75 CNS; SW-620 colon; U251 CNS; UACC-257 melanoma; MDA-MB-435; RXF 393 renal; DU-145 prostate.
Common to all, as to experiment: NCI tumour cell line growth inhibition, 48 h

Turning to `CO/N=C/c1cc(OC)c(OC)c(OC)c1`, the TGI with A549 NSCLC, in the test with COLO 205 colon, in the test on EKVX NSCLC, in the test with HCT-15 colon, in the test on HOP-92 NSCLC and with IGROV1 ovarian was over 100 µM each time. Also, the TGI with M14 melanoma, with MALME-3M melanoma, in the test with NCI-H460 lung, in the test with OVCAR-5 ovarian, in the test on SF-295 CNS and in the test with SK-MEL-28 melanoma was over 100 µM each time. Also, the TGI in the test with SNB-75 CNS, with SW-620 colon, in the test with U251 CNS and in the test on UACC-257 melanoma was over 100 µM each time.

As for `Cc1cc(N)c(C)c2c1[nH]c1ccc(O)cc12`, the TGI with A549 NSCLC, with COLO 205 colon, in the test on EKVX NSCLC, with HCT-15 colon, in the test on M14 melanoma and in the test with MALME-3M melanoma was over 100 µM in each case. Also, the TGI in the test on NCI-H460 lung, with OVCAR-5 ovarian, in the test with SF-295 CNS, in the test on SK-MEL-28 melanoma, in the test with SW-620 colon and with U251 CNS was over 100 µM in each case. In addition, in the test on UACC-257 melanoma, the TGI is over 100 µM.

In the case of `CCCCC1=NNC(=O)C1`, the TGI in the test on A549 NSCLC, in the test with COLO 205 colon, with EKVX NSCLC, in the test with HCT-15 colon, in the test on HOP-92 NSCLC and in the test with IGROV1 ovarian was over 100 µM each time. Besides, the TGI in the test on M14 melanoma, in the test on MALME-3M melanoma, with MDA-MB-435, with NCI-H460 lung, in the test with OVCAR-5 ovarian and with RXF 393 renal was over 100 µM each time. Moreover, the TGI in the test with SF-295 CNS, in the test on SK-MEL-28 melanoma, in the test with SNB-75 CNS, in the test on SW-620 colon, in the test with U251 CNS and in the test on UACC-257 melanoma was over 100 µM each time.

Turning to `OCCCCCCCCCCCOc1ccc(C2OCC3(CO2)COC(c2ccc(OCCCCCCCCCCCO)cc2)OC3)cc1` (stereo unspecified), the TGI with A549 NSCLC, in the test with COLO 205 colon, in the test with DU-145 prostate, in the test on EKVX NSCLC, in the test on HCT-15 colon and with IGROV1 ovarian was over 50 µM each time. Moreover, the TGI with M14 melanoma, in the test with MALME-3M melanoma, in the test with MDA-MB-435, with NCI-H460 lung, with OVCAR-5 ovarian and with SF-295 CNS was over 50 µM each time. For the same compound, the TGI in the test with SK-MEL-28 melanoma, in the test with SNB-75 CNS, with SW-620 colon, in the test on U251 CNS and in the test on UACC-257 melanoma was over 50 µM in each case.

As for `O=c1cc(N2CCOCC2)[nH]c(=O)n1-c1ccc(F)cc1`, the TGI in the test on COLO 205 colon, in the test on DU-145 prostate, in the test on EKVX NSCLC, with HCT-15 colon, in the test on IGROV1 ovarian and in the test on M14 melanoma was over 100 µM throughout. Further, the TGI in the test on MALME-3M melanoma, in the test on MDA-MB-435, with NCI-H460 lung, in the test with OVCAR-5 ovarian, in the test with RXF 393 renal and in the test on SF-295 CNS was over 100 µM throughout. Further, the TGI in the test with SK-MEL-28 melanoma, in the test with SNB-75 CNS, with SW-620 colon, with U251 CNS and in the test with UACC-257 melanoma was over 100 µM in each case.

With `CCCCc1c(N(C)C)c(OC(C)=O)c(-c2cn(C)c3ccccc23)oc1=O`, the TGI in the test with A549 NSCLC was over 100 µM; in the test on COLO 205 colon, 44.1 µM; with DU-145 prostate, over 100 µM; with EKVX NSCLC, over 100 µM; in the test with HCT-15 colon, 53.7 µM; in the test with M14 melanoma it was 35.8 µM. Besides, the TGI in the test with MALME-3M melanoma is 62.3 µM; in the test with MDA-MB-435, 47.8 µM; in the test on NCI-H460 lung, over 100 µM; in the test with OVCAR-5 ovarian, over 100 µM; in the test with RXF 393 renal, over 100 µM; in the test with SF-295 CNS, over 100 µM. The TGI in the test on SK-MEL-28 melanoma is 57.9 µM; in the test on SNB-75 CNS, 86 µM; in the test on SW-620 colon, over 100 µM; with U251 CNS, 64 µM; with UACC-257 melanoma, 59.8 µM.

In the case of `COc1ccc(C2C(Cl)C(=O)N2n2cnc3ccccc3c2=O)cc1` (stereo unspecified), the TGI in the test with A549 NSCLC was over 100 µM; in the test on COLO 205 colon, over 100 µM; with EKVX NSCLC, over 100 µM; in the test with HCT-15 colon it was over 100 µM; in the test with IGROV1 ovarian, over 100 µM; with M14 melanoma, 91.6 µM. Besides, the TGI in the test with MALME-3M melanoma, with NCI-H460 lung, in the test on OVCAR-5 ovarian, with RXF 393 renal, in the test on SF-295 CNS and in the test with SK-MEL-28 melanoma was over 100 µM throughout. For the same compound, the TGI in the test on SNB-75 CNS was 86.2 µM; with SW-620 colon it was over 100 µM; in the test on U251 CNS, over 100 µM; in the test on UACC-257 melanoma, over 100 µM.

On to `COc1cc2cc3c4c(cc(OC)c(OC)c4c2cc1OC)CCN3C(=O)OCCN1CCNCC1`, for which the TGI worked out at 34.4 µM in the test with A549 NSCLC; 20.9 µM with COLO 205 colon; 28.6 µM with EKVX NSCLC; 29.2 µM in the test on HCT-15 colon; 26.2 µM in the test with HOP-92 NSCLC; 32.2 µM with IGROV1 ovarian. Also, the TGI with M14 melanoma turned out to be 27.9 µM; in the test on MALME-3M melanoma it was 31 µM; with NCI-H460 lung, 26.6 µM; in the test with OVCAR-5 ovarian, 31.9 µM; in the test on RXF 393 renal, 27.9 µM; in the test with SF-295 CNS, 28.2 µM. Also, the TGI in the test with SK-MEL-28 melanoma stood at 36.6 µM; in the test with SNB-75 CNS, 27.5 µM; with SW-620 colon, 28.1 µM; in the test on U251 CNS it was 28.9 µM; in the test with UACC-257 melanoma, 29.1 µM.

These data come from PubChem BioAssay (NCI).
